In ChEMBL document CHEMBL1201862, “PubChem BioAssay data set” (2004):
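Cultured in 96-well plates, cells were exposed to test compound for 48 hours across five concentrations. GI50 = concentration required for 50% inhibition of growth.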 Active and inactive are the calls of the source. Cut-off read from the data, not from the text of the source: active = GI50 up to about 1.1 µM and inactive = higher. Where a SMILES comes first, the peptide text is derived from it. Bridges are numbered along the chain shown (N, C = ends). [ ]: non-standard residue; d: D form. The star is where a group is joined. ξ: configuration not given here. X28 = O=C(/C=C/C=C/C=C/C=C/C=C/C(=O)*)NC1=C(O)CCC1=O; NMeA = CN[C@@H](C)C(=O)O; ξF = NC(Cc1ccccc1)C(=O)O; ξA = CC(N)C(=O)O

Assays:
Test in all cases: inhibition of tumour cell growth, NCI panel, 48 h
SN12C = test system: SN12C
SF-539 = test system: SF-539
DU-145 = test system: DU-145
CAKI-1 = test system: CAKI-1
UO-31 = test system: UO-31
A549 = test system: A549
COLO 205 = test system: COLO 205
SR = test system: SR
SF-268 = test system: SF-268
K562 = test system: K562
LOX IMVI = test system: LOX IMVI
MDA-MB-231 = test system: MDA-MB-231
SK-OV-3 = test system: SK-OV-3
SK-MEL-28 = test system: SK-MEL-28
BT-549 = test system: BT-549
786-0 = test system: 786-0
UACC-257 = test system: UACC-257
MOLT-4 = test system: MOLT-4

Measured: GI50

CC1NC(=O)[C@H](C)N(C)C(=O)[C@@H]2CCCN2C(=O)[C@@H](NC(=O)C(Cc2ccccc2)NC(=O)/C=C/C=C/C=C/C=C/C=C/C(=O)NC2=C(O)CCC2=O)COC(=O)[C@@H]2CCCN2C1=O (stereo partly specified) (X28-[ξF]SP[NMeA][ξA]P; ester 2-C)
inactive: SN12C > 100 µM | SF-539 > 100 µM | DU-145 89.3 µM | CAKI-1 40.4 µM | UO-31 29.2 µM | A549 > 100 µM | COLO 205 > 100 µM | SR 79.3 µM | SF-268 > 100 µM | K562 > 100 µM | LOX IMVI > 100 µM | MDA-MB-231 22.7 µM | SK-OV-3 > 100 µM | SK-MEL-28 > 100 µM | BT-549 > 100 µM | 786-0 > 100 µM | UACC-257 > 100 µM

Nc1nc(O)c2ncn(C3C=CC(CO)C3)c2n1 (stereo unspecified)
inactive: SN12C > 100 µM | SF-539 > 100 µM | DU-145 > 100 µM | CAKI-1 > 100 µM | UO-31 > 100 µM | A549 > 100 µM | COLO 205 > 100 µM | SR > 100 µM | SF-268 > 100 µM | K562 > 100 µM | MDA-MB-231 > 100 µM | SK-OV-3 > 100 µM | SK-MEL-28 > 100 µM | BT-549 > 100 µM | 786-0 > 100 µM | UACC-257 > 100 µM

Cc1c(-c2ccccc2)cc(O)c2nc3ccccc3n12
inactive: SN12C > 100 µM | MOLT-4 8.28 µM | SF-539 > 100 µM | DU-145 > 100 µM | CAKI-1 74.1 µM | UO-31 9.25 µM | A549 14.5 µM | COLO 205 > 100 µM | SR 7.06 µM | SF-268 > 10 µM | K562 5.82 µM | LOX IMVI 4.99 µM | MDA-MB-231 5.61 µM | SK-MEL-28 > 100 µM | BT-549 12.6 µM | 786-0 29 µM | UACC-257 > 100 µM

Nc1ccc2c(c1)C1Oc3ccccc3CC1CO2 (stereo unspecified)
inactive: SN12C > 100 µM | MOLT-4 > 100 µM | SF-539 > 100 µM | DU-145 > 100 µM | CAKI-1 > 100 µM | UO-31 > 100 µM | A549 > 100 µM | COLO 205 > 100 µM | SR > 100 µM | SF-268 > 100 µM | K562 > 100 µM | LOX IMVI > 100 µM | MDA-MB-231 > 100 µM | SK-OV-3 > 100 µM | BT-549 74.6 µM | 786-0 > 100 µM | UACC-257 > 100 µM

Cc1nc2ccccc2[nH]/c1=N/Nc1ccccc1
active: COLO 205 0.108 µM
inactive: SN12C 26.4 µM | SF-539 44.5 µM | DU-145 22.7 µM | CAKI-1 27 µM | UO-31 18.8 µM | A549 21.5 µM | SR 19.3 µM | SF-268 27.6 µM | K562 17.9 µM | LOX IMVI 23.3 µM | MDA-MB-231 28 µM | SK-MEL-28 26.5 µM | BT-549 20.7 µM | 786-0 25.2 µM | UACC-257 57.9 µM

C=C(C)[C@@H]1CCC2=C[C@H](C/C(C)=C\C3=CC(C)=C(O3)[C@H]1O)OC2=O
inactive: SN12C 71.8 µM | MOLT-4 > 100 µM | SF-539 48.5 µM | DU-145 > 100 µM | CAKI-1 > 100 µM | UO-31 > 100 µM | A549 88.7 µM | COLO 205 > 100 µM | SR > 100 µM | SF-268 > 100 µM | K562 > 100 µM | LOX IMVI > 100 µM | MDA-MB-231 25.8 µM | SK-MEL-28 > 100 µM | BT-549 > 100 µM | 786-0 35.2 µM | UACC-257 > 100 µM

CC[C@H]1CN(C)[C@H]2Cc3c([nH]c4ccccc34)C(=O)C[C@H]1C2C(=O)OC (stereo partly specified)
inactive: SN12C > 100 µM | MOLT-4 73.6 µM | SF-539 > 100 µM | DU-145 > 100 µM | UO-31 > 100 µM | A549 > 100 µM | COLO 205 > 100 µM | SR > 100 µM | SF-268 > 100 µM | LOX IMVI > 100 µM | MDA-MB-231 > 100 µM | SK-OV-3 > 100 µM | SK-MEL-28 > 100 µM | BT-549 > 100 µM | 786-0 > 100 µM | UACC-257 > 100 µM

NP(=O)(Oc1c2occc2cc2ccc(=O)oc12)N(CCCl)CCCl (stereo unspecified)
inactive: SN12C > 100 µM | MOLT-4 28.8 µM | SF-539 > 100 µM | DU-145 > 100 µM | CAKI-1 > 100 µM | UO-31 > 100 µM | A549 62.2 µM | COLO 205 > 100 µM | SR 38.5 µM | SF-268 58.2 µM | K562 > 100 µM | LOX IMVI 37.6 µM | MDA-MB-231 > 100 µM | SK-MEL-28 > 100 µM | BT-549 > 100 µM | 786-0 > 100 µM | UACC-257 > 100 µM

COc1ccc(Nc2nc3cc(C(F)(F)F)ccc3nc2C(=O)O)cc1OC
inactive: SN12C 21.5 µM | MOLT-4 20.1 µM | SF-539 23.3 µM | DU-145 15.4 µM | CAKI-1 27 µM | UO-31 28.2 µM | A549 41.3 µM | COLO 205 27.9 µM | SR 25.1 µM | SF-268 42.8 µM | K562 28.6 µM | LOX IMVI 28.9 µM | MDA-MB-231 29 µM | SK-MEL-28 47.5 µM | BT-549 26.3 µM | 786-0 31 µM | UACC-257 29.6 µM

O=c1[nH]nc(-c2ccccc2)n1-c1ccncc1
inactive: SN12C > 100 µM | MOLT-4 > 100 µM | SF-539 > 100 µM | DU-145 > 100 µM | CAKI-1 > 100 µM | UO-31 > 100 µM | A549 > 100 µM | COLO 205 > 100 µM | SR > 100 µM | SF-268 > 100 µM | K562 > 100 µM | LOX IMVI > 100 µM | MDA-MB-231 > 100 µM | SK-MEL-28 > 100 µM | BT-549 > 100 µM | 786-0 > 100 µM | UACC-257 > 100 µM

Nc1nc2ccc(Sc3ccc4nc(N)[nH]c(=O)c4c3)cc2c(=O)[nH]1
inactive: SN12C > 100 µM | MOLT-4 > 100 µM | SF-539 > 100 µM | DU-145 > 100 µM | CAKI-1 > 100 µM | UO-31 > 100 µM | A549 > 100 µM | COLO 205 > 100 µM | SR > 100 µM | SF-268 > 100 µM | K562 > 100 µM | MDA-MB-231 67.3 µM | SK-OV-3 > 100 µM | SK-MEL-28 > 100 µM | BT-549 > 100 µM | 786-0 > 100 µM | UACC-257 > 100 µM

O=C1C(Br)=CC2(C=C1Br)CCNC1=C2C(=O)c2[nH]cnc2C1=O
inactive: MOLT-4 41.5 µM | SF-539 18.1 µM | DU-145 16 µM | CAKI-1 24.5 µM | UO-31 15.9 µM | A549 18.3 µM | COLO 205 21.3 µM | SR 30.1 µM | SF-268 14.8 µM | K562 12.4 µM | LOX IMVI 13.5 µM | MDA-MB-231 15.8 µM | SK-OV-3 21.5 µM | SK-MEL-28 16.1 µM | BT-549 19.2 µM | 786-0 16.4 µM | UACC-257 14.6 µM
